Measurements as given in patent US11053258B2, “Pyrimidine carboxamides as GSK-3 inhibitors” (BRISTOL-MYERS SQUIBB COMPANY, priority 2016, dated 2021).
Where “and” joins values, the source holds several entries; their conditions need not be identical. Equal entries are not always repeated. Where two headings read alike, the source gives them in different places.

Experiments:
[1] = rcm bond, 70.0 °C
GSK3α = GSK3α (Homo sapiens, UniProt P49840); assay: GSK3α kinase assay (Caliper LabChip3000, fluoresceinated peptide substrate); type: biochemical; details: second value of cell; 250 pM enzyme, 20 uM ATP, 20 hours room temperature; read-out: GSK3β/α (nM): GSK3α IC50
Method: (§1) The kinase assay was performed in V-bottom 384-well plates. The final assay volume was 30 μl prepared from 15 μl additions of enzyme, substrates (fluoresceinated peptide FL-KRREILSRRP[ps]ERYR-NH2 and ATP) and test compounds in assay buffer (100 mM HEPES pH 7.4, 10 mM MgCl2, 25 mM Beta-Glycerolphosphate, 0.015% Brij35 and 0.25 mM DTT). The reaction was incubated at room temperature for 20 hours and terminated by adding 45 μl of 35 mM EDTA to each sample. The reaction mixture was analyzed on the Caliper LabChip3000 (Caliper, Hopkinton, Mass.) by electrophoretic separation of the unphosphorylated substrate and phosphorylated product. Inhibition data were calculated by comparison of the no enzyme control reactions for 100% inhibition and vehicle-only reactions for 0% inhibition. The final concentration of reagents in the assay were 250 pM GSK3α or GSK3β, 20 uM ATP, 1.5 uM FL-KRREILSRRP[ps]ERYR-NH2, and 1.6% DMSO. Dose response curves were generated to determine the concentration required to inhibit 50% of the kinase activity (IC50). Compounds were dissolved at 10 mM in dimethylsulfoxide (DMSO) and evaluated at eleven concentrations. IC50 values were derived by non-linear regression analysis.

pTau = pTau assay; type: cell-based
GSK3β = GSK3β (Homo sapiens, UniProt P49841); assay: GSK3β kinase assay (Caliper LabChip3000, fluoresceinated peptide substrate); type: biochemical; details: first value of cell; 250 pM enzyme, 20 uM ATP, 20 hours room temperature; read-out: GSK3β/α (nM): GSK3β IC50
Method: as §1

GSK3α, sequence (P49840 whole entry, species assumed): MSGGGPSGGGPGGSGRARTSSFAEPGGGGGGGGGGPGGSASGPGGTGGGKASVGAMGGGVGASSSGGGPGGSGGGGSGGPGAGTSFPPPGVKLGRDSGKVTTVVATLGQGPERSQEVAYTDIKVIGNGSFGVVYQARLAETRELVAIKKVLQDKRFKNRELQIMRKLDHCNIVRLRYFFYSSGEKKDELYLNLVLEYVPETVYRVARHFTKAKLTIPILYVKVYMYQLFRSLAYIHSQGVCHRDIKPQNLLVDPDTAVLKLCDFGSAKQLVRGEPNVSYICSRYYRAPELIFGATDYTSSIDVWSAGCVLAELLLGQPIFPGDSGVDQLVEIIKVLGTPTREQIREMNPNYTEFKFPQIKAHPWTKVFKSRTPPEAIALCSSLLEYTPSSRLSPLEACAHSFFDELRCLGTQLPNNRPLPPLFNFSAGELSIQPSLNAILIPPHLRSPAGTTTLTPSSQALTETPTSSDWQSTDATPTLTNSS
GSK3β, sequence (P49841 whole entry, species assumed): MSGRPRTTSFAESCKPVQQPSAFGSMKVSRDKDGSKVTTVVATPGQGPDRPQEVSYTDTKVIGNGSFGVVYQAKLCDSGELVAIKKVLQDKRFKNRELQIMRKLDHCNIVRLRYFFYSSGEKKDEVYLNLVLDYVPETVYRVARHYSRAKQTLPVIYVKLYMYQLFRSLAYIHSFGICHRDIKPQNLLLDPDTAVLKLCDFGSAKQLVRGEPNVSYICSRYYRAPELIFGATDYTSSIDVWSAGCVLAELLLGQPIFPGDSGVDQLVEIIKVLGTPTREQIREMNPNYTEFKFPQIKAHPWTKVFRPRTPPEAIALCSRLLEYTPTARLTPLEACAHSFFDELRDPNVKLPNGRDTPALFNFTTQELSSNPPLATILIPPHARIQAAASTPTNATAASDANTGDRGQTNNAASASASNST

| SMILES | IC50 (GSK3α) | IC50 (pTau) | IC50 (GSK3β) | also measured |
| --- | --- | --- | --- | --- |
| CC1(C)CC=CCN2CCN(CC2)c2cc(F)ncc2NC(=O)c2ccnc(n2)NC1 | – | – | – | ring closure, isolated yield ([1]; from C=CCN1CCN(c2cc(F)ncc2NC(=O)c2ccnc(NCC(C)(C)CC=C)n2)CC1, 18-membered ring, Zhan 1B, 1.5 h, 2 steps): 34% |
| C[C@@H]1Nc2nccc(n2)C(=O)Nc2cnc(F)cc2N2CCN(CC=CCC1O)CC2 (stereo partly drawn) | – | – | – | ring closure, isolated yield ([1]; from C=CCC(O)[C@H](C)Nc1nccc(C(=O)Nc2cnc(F)cc2N2CCN(CC=C)CC2)n1, 18-membered ring, Zhan 1B, ClCH2CH2Cl, 4.78 mM, 1.5 h): 29% and 26% |
| O=C1Nc2cnc(F)cc2N2CCN(CC=CCC(O)CNc3nccc1n3)CC2 (stereo not drawn) | – | – | – | ring closure, isolated yield ([1]; from C=CCC(O)CNc1nccc(C(=O)Nc2cnc(F)cc2N2CCN(CC=C)CC2)n1, 18-membered ring, Zhan 1B (30 mol%), ClCH2CH2Cl, 5.33 mM, 4.0 h): 50% |
| O=C1Nc2cnc(F)cc2N2CCN(CC=CCC3(CC3)CNc3nccc1n3)CC2 | – | – | – | ring closure, isolated yield ([1]; from C=CCN1CCN(c2cc(F)ncc2NC(=O)c2ccnc(NCC3(CC=C)CC3)n2)CC1, 18-membered ring, Zhan 1B, ClCH2CH2Cl, 4.73 mM, 2.0 h): 79% |
| O=C1Nc2cnc(F)cc2N2CCN(CC=CCCCNc3nccc1n3)CC2 | – | – | – | ring closure, isolated yield ([1]; from C=CCCCNc1nccc(C(=O)Nc2cnc(F)cc2N2CCN(CC=C)CC2)n1, 18-membered ring, Zhan 1B (20 mol%), ClCH2CH2Cl, 5.64 mM, 2.0 h): 65% |
| O=C1Nc2cnc(F)cc2N2CCOC(C=CCCCNc3nccc1n3)C2 (stereo not drawn) | – | – | – | ring closure, isolated yield ([1]; from C=CCCCNc1nccc(C(=O)Nc2cnc(F)cc2N2CCOC(C=C)C2)n1, 16-membered ring, Zhan 1B (40 mol%), ClCH2CH2Cl, 5.6 mM, 2.0 h): 46% |
| O=C1Nc2cnccc2OCCC=CCCCNc2nccc1n2 | – | – | – | ring closure, isolated yield ([1]; from C=CCCCNc1nccc(C(=O)Nc2cnccc2OCCC=C)n1, 16-membered ring, Zhan 1B (30 mol%), ClCH2CH2Cl, 5.57 mM, 2.0 h): 23% |
| O=C1Nc2cnc(F)cc2N2CCN(C/C=C/CCCNc3nccc1n3)CC2 (single isomer, unassigned) [Example 23, (E)-2^6-fluoro-3,6-diaza-5(4,2)-pyrimidina-1(1,4)-piperazina-2(4,3)-pyridinacyclododecaphan-10-en-4-one] | 0.6 nM | 18 nM | 0.5 nM | – |
| C[C@@H]1Nc2nccc(n2)C(=O)Nc2cnc(F)cc2N2CCN(C/C=C/CC1O)CC2 (single isomer, unassigned) [Example 36] | 18.5 nM | 202 nM | 10.8 nM | – |
| O=C1Nc2cnccc2OCCCCCNc2nccc1n2 [Example 6, 5-Oxa-3,11-diaza-1(4,2)-pyrimidina-4(3,4)-pyridinacycloundecaphan-2-one] | 21.2 nM | 910 nM | 28.6 nM | – |
| O=C1Nc2cnc(F)cc2N2CCOC(CCCCCNc3nccc1n3)C2 (stereo not drawn) [Example 15, 2^6-Fluoro-3,6-diaza-1(4,2)-morphohna-5(4,2)-pyrimidina-2(4,3)-pyridinacycloundecaphan-4-one] | 34 nM | 1890 nM | 22.3 nM | – |
| O=C1Nc2cnc(F)cc2N2CCN(CCCCCCNc3nccc1n3)CC2 [Example 24, 2^6-Fluoro-3,6-diaza-5(4,2)-pyrimidina-1(1,4)-piperazina-2(4,3)-pyridinacyclododecaphan-4-one] | 3.6 nM | 124 nM | 2 nM | – |
| O=C1Nc2cnc(F)cc2N2CCN(C/C=C\CCC(O)CNc3nccc1n3)CC2 (stereo not drawn) [Example 29, (Z)-2^6-fluoro-8-hydroxy-3,6-diaza-5(4,2)-pyrimidina-1(1,4)-piperazina-2(4,3)-pyridinacyclotridecaphan-11-en-4-one] | 30.4 nM | 2660 nM | 29 nM | – |
| O=C1Nc2cnc(F)cc2N2CCN(C/C=C/CC(F)CNc3nccc1n3)CC2 (stereo not drawn) [Example 30, (E)-2^6,8-Difluoro-3,6-diaza-5(4,2)-pyrimidina-1(1,4)-piperazina-2(4,3)-pyridinacyclododecaphan-10-en-4-one] | 15.5 nM | 178 nM | – | – |
| C[C@@H]1Nc2nccc(n2)C(=O)Nc2cnc(F)cc2N2CCN(C/C=C/C[C@@H]1O)CC2 [Example 37, (7S,8S,E)-2^6-fluoro-8-hydroxy-7-methyl-3,6-diaza-5(4,2)-pyrimidina-1(1,4)-piperazina-2(4,3)-pyridinacyclododecaphan-10-en-4-one] | 17 nM | 404 nM | 7.3 nM | – |
| CC1(O)C/C=C/CN2CCN(CC2)c2cc(F)ncc2NC(=O)c2ccnc(n2)NC1 (stereo not drawn) [Example 39, (E)-2^6-Fluoro-8-hydroxy-8-methyl-3,6-diaza-5(4,2)-pyrimidina-1(1,4)-piperazina-2(4,3)-pyridinacyclododecaphan-10-en-4-one] | 8 nM | 372 nM | 4.1 nM | – |
| CC1(O)CCCCCOc2ccncc2NC(=O)c2ccnc(n2)NC1 (stereo not drawn) [Example 42, 11-Hydroxy-11-methyl-5-oxa-3,13-diaza-1(4,2)-pyrimidina-4(3,4)-pyridinacyclotridecaphan-2-one] | 3.2 nM | 96 nM | 1.4 nM | – |
| O=C1Nc2cnc(F)cc2N2CCN(C/C=C\CC3(CC3)CNc3nccc1n3)CC2 [Example 44, (Z)-6′-fluorospiro[cyclopropane-1,8′-3,6-diaza-5(4,2)-pyrimidina-1(1,4)-piperazina-2(4,3)-pyridinacyclododecaphanen]-10′-en-4′-one] | 21.1 nM | 1640 nM | 12.5 nM | – |

More lines, main results first:

| IC50 (GSK3α) | IC50 (pTau) | IC50 (GSK3β) | SMILES | also measured |
| --- | --- | --- | --- | --- |
| 12.1 nM | 1500 nM | 13.5 nM | O=C1Nc2cnccc2OCCC=CCNc2nccc1n2 (mixture of isomers) [Example 5, 5-Oxa-3,11-diaza-1(4,2)-pyrimidina-4(3,4)-pyridinacycloundecaphan-8-en-2-one] | ring closure, isolated yield ([1]; from C=CCCOc1ccncc1NC(=O)c1ccnc(NCC=C)n1, 14-membered ring, Zhan 1B (50 mol%), ClCH2CH2Cl, 4.55 mM, 2.0 h): 34% |
| 8.4 nM | 634 nM | 8.1 nM | O=C1Nc2cnccc2OCCC=CCCNc2nccc1n2 (mixture of isomers) [Example 8, 5-Oxa-3,12-diaza-1(4,2)-pyrimidina-4(3,4)-pyridinacyclododecaphan-8-en-2-one] | ring closure, isolated yield ([1]; from C=CCCNc1nccc(C(=O)Nc2cnccc2OCCC=C)n1, 15-membered ring, Zhan 1B (50 mol%), ClCH2CH2Cl, 4.3 mM, 2.0 h): 46% |
| 2000 nM | 9970 nM | 1270 nM | O=C1Nc2cnc(F)cc2N2CCN(CC=CCC(O)C3(CC3)Nc3nccc1n3)CC2 (mixture of isomers) [Example 34, (E)-6′-fluoro-8′-hydroxyspiro[cyclopropane-1,7′-3,6-diaza-5(4,2)-pyrimidina-1(1,4)-piperazina-2(4,3)-pyridinacyclododecaphanen]-10′-en-4′-one] | ring closure, isolated yield ([1]; from C=CCC(O)C1(Nc2nccc(C(=O)Nc3cnc(F)cc3N3CCN(CC=C)CC3)n2)CC1, 18-membered ring, Zhan 1B, 1.5 h): 54% |
| 4.7 nM | 266 nM | 2.7 nM | CC1(O)CC=CCCOc2ccncc2NC(=O)c2ccnc(n2)NC1 (mixture of isomers) [Example 41, (E)-11-Hydroxy-11-methyl-5-oxa-3,13-diaza-1(4,2)-pyrimidina-4(3,4)-pyridinacyclotridecaphan-8-en-2-one] | ring closure, isolated yield ([1]; from C=CCCOc1ccncc1NC(=O)c1ccnc(NCC(C)(O)CC=C)n1, 16-membered ring, Zhan 1B, ClCH2CH2Cl, 4.33 mM, 1.5 h): 39% |
| 6.2 nM | 146 nM | 5.2 nM | O=C1Nc2cnccc2OCCCCCCNc2nccc1n2 [Example 9, 5-Oxa-3,12-diaza-1(4,2)-pyrimidina-4(3,4)-pyridinacyclododecaphan-2-one] | – |
| 20.2 nM | 627 nM | 12.5 nM | O=C1Nc2cnc(F)cc2N2CCOC(/C=C/CCCNc3nccc1n3)C2 (stereo not drawn) [Example 14, (E)-2^6-Fluoro-3,6-diaza-1(4,2)-morpholina-5(4,2)-pyrimidina-2(4,3)-pyridinacycloundecaphan-10-en-4-one] | – |
| 3.3 nM | 92 nM | 1.3 nM | O=C1Nc2cnccc2OCC/C=C/CCCNc2nccc1n2 [Example 17, (E)-5-Oxa-3,13-diaza-1(4,2)-pyrimidina-4(3,4)-pyridinacyclotridecaphan-8-en-2-one] | – |
| 6.7 nM | 262 nM | 3.1 nM | O=C1Nc2cnccc2OCCCCCCCNc2nccc1n2 [Example 18, 5-Oxa-3,13-diaza-1(4,2)-pyrimidina-4(3,4)-pyridinacyclotridecaphan-2-one] | – |
| 4.3 nM | 164 nM | 3.3 nM | O=C1Nc2cnc(F)cc2N2CCN(C/C=C/CC(O)CNc3nccc1n3)CC2 (stereo not drawn) [Example 26, (E)-2^6-fluoro-8-hydroxy-3,6-diaza-5(4,2)-pyrimidina-1(1,4)-piperazina-2(4,3)-pyridinacyclododecaphan-10-en-4-one] | – |
| 2 nM | 80 nM | – | CC1(C)C/C=C/CN2CCN(CC2)c2cc(F)ncc2NC(=O)c2ccnc(n2)NC1 [Example 32, (E)-2^6-Fluoro-8,8-dimethyl-3,6-diaza-5(4,2)-pyrimidina-1(1,4)-piperazina-2(4,3)-pyridinacyclododecaphan-10-en-4-one] | – |
